According to BigSolDB 2.1:

C=CC(=O)N1CCC[C@@H](n2nc(-c3ccc(Oc4ccccc4)cc3)c3c(N)ncnc32)C1
solubility (mole fraction)
Conditions | 298.15 K | 303.15 K | 308.15 K | 313.15 K | 323.15 K
in transcutol | 0.0267 | 0.0288 | 0.0318 | 0.0341 | 0.0392
in water | 1.43e-07 | 2.21e-07 | 3.11e-07 | 4.13e-07 | 7.69e-07
